Legend:
Platelet [1] = assay: Inhibition of PAF-induced platelet aggregation at 2.4 mmol/L; format: functional
Platelet [2] = assay: Inhibition of PAF-induced platelet aggregation at 1.0 mmol/L; format: functional

| Compound | inhibition at 2400 µM (Platelet [1]) [%] | inhibition at 1000 µM (Platelet [2]) [%] |
| --- | --- | --- |
| CC(=O)Oc1ccccc1C(=O)O [ASPIRIN] | 44.9 | – |
| CC(=O)O[C@@H](C[C@]12[C@@H]3CCC[C@@]34CCC3[C@H](O)N4[C@@H]1[C@@H](C(C)C)CC[C@@]32C)C(=O)[C@]1(C)CO[C@@]2(C)CC[C@H]1O2 [DAPHNIOLDHANINE H] | – | 10.9 |
| C[C@@H]1CN2[C@H]3[C@@H]4CCC[C@@H]4C(=O)C[C@@H]3[C@]3(C)OC(=O)CC[C@]34CC[C@H]1[C@H]24 [DAPHNIOLDHANINE J] | – | 71.6 |
| CCC1=CC[C@]2(CO1)[C@@H]1CCC3=C4[C@H](CC3)[C@H](C(=O)OC)C[C@]42CN(C)C1 [DEHYDRODAPHNIGRACILINE] | – | 13.4 |

— ChEMBL document CHEMBL1149839, “Alkaloids from Daphniphyllum oldhami” (2008)
